Assay: gradient 5% acetonitrile 3 min, to 50% in 2 min, to 85% in 15 min, held 3 min, 100 µL/min
Details: column: Zorbax Extend-C18 2.1 x 50 mm; eluents: water / acetonitrile, 0.1% formic acid
Method in brief: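 Retention times come from adduct peaks that were picked computationally and then checked by hand. The standards, pure and pooled in mixtures of ~100 molecules, were run on a Zorbax Extend-C18 column (2.1 × 50 mm, 1.8 μm) at 100 μL/min with water and acetonitrile, each with 0.1% formic acid. Detection was by quadrupole time-of-flight mass spectrometry in positive and negative ionization mode, with a dead volume of 40 μL and a dwell volume of 900 μL.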

Structure (SMILES)	RP-LC retention time
O=S(=O)(/C=C/c1ccccc1)NCC1CCN(Cc2ccsc2)CC1	586 s
CNC(=O)N1CCc2c(c(-c3nc(-c4cccc(F)c4)no3)nn2C)C1	738 s
Cn1cc(C(=O)C(=O)N[C@H]2CN3CCC2CC3)c2ccccc21	672 s
CO[C@H]1C(=O)N(C2CCN(S(=O)(=O)c3ccc4c(c3)CCC4)CC2)[C@H]1c1ccncc1	704 s
O=C(Cn1cnc2c(-c3ccc(Cl)cc3)csc2c1=O)N1CCCC1	838 s
COc1ccc(NC(=O)C2CCN(S(=O)(=O)c3cn(C(C)C)cn3)CC2)c(OC)c1	951 s
Cc1ccc(CNC(=O)C2(C)Cn3nc(C)cc3C(=O)N2c2ccc3c(c2)OCCO3)cc1 (stereo unspecified)	809 s
O=C(Cn1nc2c(Oc3cccc(F)c3)nccn2c1=O)Nc1cc(F)ccc1F	885 s
COc1ccc(NC(=O)N2CCC(Cc3nc4cccnc4n3C(C)C)C2)c(OC)c1 (stereo unspecified)	626 s
Cn1cnc(S(=O)(=O)N2CCCCC2c2nc(-c3ccncc3)n[nH]2)c1 (stereo unspecified)	646 s
CC(C(=O)N1CC2CN(S(=O)(=O)c3cccc(F)c3)CC(C1)O2)c1ccccc1 (stereo unspecified)	878 s
COc1ccc(N2C=C(C(=O)N3CCOCC3)S(=O)(=O)c3ccc(F)cc32)cc1Cl	762 s
Cc1csc(-c2cc(S(=O)(=O)NC3CCCC3)cn2CC(=O)N2CCCC2)n1	848 s
COC(=O)c1ccccc1S(=O)(=O)Nc1cccn2c(C3CCC3)nnc12	772 s
CCOC(=O)CNC(=O)N1CCCCCC1c1ccccc1Cl (stereo unspecified)	911 s
O=C(NC1CCN(c2cc(-c3cccs3)[nH]n2)CC1)c1ccc(Cl)cc1	749 s
CCn1nc(C)n2cc(S(=O)(=O)NCc3ccc(F)c(Cl)c3)cc2c1=O	930 s
COC(=O)c1cc(S(=O)(=O)N2CCCC2C(=O)Nc2cccc(SC)c2)cn1C (stereo unspecified)	909 s
Cc1ccc(NC(=O)Cn2nc3nc(N4CCCC(C)C4)ccn3c2=O)cc1C (stereo unspecified)	826 s
O=C(CC1CCCC1)NCC1(c2ccccc2)CCCOCC1 (stereo unspecified)	872 s
CCOc1ccccc1CNC(=O)C1CCN(c2nccnc2Sc2cccc(C)c2)CC1	1170 s
Cc1ccccc1Cc1nc2ccccc2n1CC(N)=O	570 s

Structure (SMILES)	RP-LC retention time
Cc1cc(F)ccc1NC(=O)C1CCN(S(=O)(=O)c2c(C)[nH]c(C)c2C(=O)N2CCCC2)CC1	691 s
COC(=O)c1cccc(NC(=O)N2CCC(c3nc(C(=O)N(C)C)c(C)o3)CC2)c1	972 s
CCc1ccccc1NC(=O)Cn1c(CC)nc2c(c1=O)CN(Cc1ccccc1)CC2	666 s
COc1cccc2c1OC1(C)CC2C(S(=O)(=O)c2ccc(C(C)(C)C)cc2)C(=O)N1 (stereo unspecified)	1010 s
Cc1ccc(Nc2ncccc2S(N)(=O)=O)cc1Cl	924 s
O=C(c1ccc2nccnc2c1)N1CCC(c2nnc(C(F)(F)F)o2)CC1	653 s
COC(=O)c1ccc(-c2nc3cnccn3c2Nc2ccccc2C)cc1	906 s
CCCc1nc(-c2c(C)cc(C)nc2NC(=O)c2ccccc2C(F)(F)F)no1	951 s
CC(C)(C)c1noc(-c2ccc(=O)n(Cc3cccc(F)c3)n2)n1	1050 s
CCOc1ccc(CNC(=O)C2CCN(S(=O)(=O)c3ccc4c(c3)NC(=O)CO4)CC2)cc1	880 s
Nc1nnc(-c2cccnc2)s1	587 s
Cc1noc(-c2cc(=O)n(CC(=O)NCc3ccc(Cl)cc3)c3ccccc23)n1	888 s
CC1CCCCN1Cc1nc(Cn2ccn3nc(-c4ccccc4)cc3c2=O)no1 (stereo unspecified)	658 s
Cc1cccc(CNC(=O)C2CCN(S(=O)(=O)c3cc(C(=O)N4CCCC4)n(C)c3)CC2)c1	747 s
CC(C)OCCCNC(=O)c1ccc2c(c1)CCCN2S(C)(=O)=O	767 s
COc1ccc(OC)c(CNc2c(-c3nc(C(C)C)no3)cnc3nc(C)ccc23)c1	784 s
O=C(Nc1ccc(F)c(F)c1)C1CCN(C(=O)C2Sc3ccccc3NC2=O)CC1 (stereo unspecified)	810 s
COc1cccc(C2CC(c3cccs3)=NN2C(=O)C(OC)c2ccccc2)c1O (stereo unspecified)	937 s
COc1cc(-c2ccc(F)cc2)nc2ccc(NS(=O)(=O)c3ccccc3)cc12	754 s
Cc1ccc(C)c(NC(=O)Cc2c(C(=O)O)c(C)cn2C)c1	795 s
CCOC(=O)Cc1sc(Nc2nc3ccccc3s2)nc1-c1ccccc1	1170 s
CCn1c(SC)nnc1-c1nn(C)c2c1CN(C(=O)CCc1ccccc1)CC2	798 s

Structure (SMILES)	RP-LC retention time
COc1cccc(N2CCN(c3ccc(-c4nc(-c5cccc(F)c5)no4)cn3)CC2)c1	1310 s
COc1ccc(OC)c(Nc2c(-c3ccccc3)nc3cnccn23)c1	839 s
COCCNC(=O)c1cc(-c2ccc(C)c(C)c2)[nH]c1C	772 s
COC(=O)c1ccc(NC(=O)CN2CCc3[nH]c4c(OC)ccc(Cl)c4c(=O)c3C2)cc1	614 s
CCCCOc1ccc(-c2cc3c4nnc(CCC(=O)NCc5cccc(OC)c5)n4ccn3n2)cc1	946 s
C(=C/c1nc2ccccc2o1)/c1ccc2c(c1)OCO2	1010 s
CCOc1ccc(S(=O)(=O)N2CCC(C(=O)NCCOC)CC2)cc1C	783 s
O=C(CCc1ccccc1)N1CCc2cc(-c3ccno3)ccc21	1020 s
CC(C)CNC(=O)C1(CCO)CCN(c2ncccn2)C1 (stereo unspecified)	584 s
FC1(F)CN[C@H](c2nc(-c3cccnc3)no2)C1	621 s
Cn1nc(C(=O)N2CCCC2)c2c1CCN(C(=O)CCC(=O)N1CCCCCC1)C2	664 s
Cc1ccc(-c2noc(Cc3nnc(-c4ccc(C)c(C)c4)o3)n2)cc1	1200 s
COC(=O)c1ccc(NC(=O)N2CCC(CCOc3ccc(F)cc3)C2)cc1 (stereo unspecified)	981 s
CCN(CC)c1ccc(NS(=O)(=O)c2cc(-c3nc(C)cs3)sc2C)c(C)c1	750 s
COc1cn(CC(=O)Nc2cccc([N+](=O)[O-])c2)c(CN2CCC(C)CC2)cc1=O	567 s
CSc1ccc(NC(=O)C2CCN(c3cnc4nc(C)c(C)nc4c3)CC2)cc1	767 s
COCc1cc(=O)n(Cc2ncc(C)c(OC)c2C)c(N2CCCC2)n1	608 s
Cc1cccc(-c2nc(C3CC(=O)N(c4ccc(Cl)cc4)C3)no2)c1 (stereo unspecified)	1110 s
CC(C)c1nc2c(NC(=O)c3ccc(Br)o3)cccn2n1	908 s
Cc1ccc2c(c1)C(=O)NC1(CCN(C(=O)NCc3ccccc3)CC1)N2C	731 s
COC1OC2COC(c3ccccc3)OC2C(=O)C1NC(=O)c1ccccc1 (stereo unspecified)	1050 s
CCOC(=O)C1CCN(C(=O)Cn2nc(C)c3sc(-c4ccccc4)nc3c2=O)CC1	842 s
